# In article PMC5793879 (Cancer cell, 2017):
# Read-outs that look alike come from different tables or passages of the source. Bridge positions count the residues as written; N and C are the ends. Square brackets hold non-standard residues; d marks the D form. Peptide text beside a SMILES is read from it. S5 = C=CCCC[C@](C)(N)C(=O)O
# Legend:
# BCL-XL = BCL-XL (Homo sapiens, UniProt Q07817); type: binding; settings: BTSA1 at 50 μM
# MCL-1 = MCL-1 (Homo sapiens, UniProt Q07820); type: binding
# BFL-1/A1 = target: T1, BFL-1/A1 (Homo sapiens, UniProt Q16548); type: binding; settings: BTSA1 at 50 μM
# T1 sequence (Q16548 1-151 limits assumed): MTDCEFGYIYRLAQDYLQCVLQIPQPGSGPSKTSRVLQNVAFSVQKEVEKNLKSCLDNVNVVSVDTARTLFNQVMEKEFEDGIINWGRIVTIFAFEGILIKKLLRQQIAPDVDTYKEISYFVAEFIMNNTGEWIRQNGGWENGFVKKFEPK
# MEF cell lines = test: Viability assay of MEF cell lines; type: cell-based, mouse
# [1] = test system: isolated mitochondria from mouse liver; settings: without addition of BAX
# [2] = test system: BAX KO MEF, DKO MEF, wild type MEF, H9c2 myocytes, 3T3 fibroblasts
# [3] = target: BAX trigger site (full-length BAX) (Homo sapiens, UniProt Q07812); type: binding; settings: relative to BTSA1
# Sequence of BAX trigger site (full-length BAX) (Q07812 whole entry): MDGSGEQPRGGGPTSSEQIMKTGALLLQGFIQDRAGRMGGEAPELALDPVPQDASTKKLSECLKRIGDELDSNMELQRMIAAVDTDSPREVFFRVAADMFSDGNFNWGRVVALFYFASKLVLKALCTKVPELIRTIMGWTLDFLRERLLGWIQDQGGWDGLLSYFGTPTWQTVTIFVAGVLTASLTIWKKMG
# OCI-AML3 cells = test: Caspase-3/7 activation assay; type: cell-based, human; settings: co-treatment with BTSA1
# Sequence of BCL-XL (Q07817 1-212 limits assumed): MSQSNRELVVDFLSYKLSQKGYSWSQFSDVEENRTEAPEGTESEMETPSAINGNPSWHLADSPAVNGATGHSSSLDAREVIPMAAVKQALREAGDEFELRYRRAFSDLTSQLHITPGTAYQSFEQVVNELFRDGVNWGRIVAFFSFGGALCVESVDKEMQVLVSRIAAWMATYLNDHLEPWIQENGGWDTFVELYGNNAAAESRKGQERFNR
# Sequence of MCL-1 (Q07820 170-327 limits assumed): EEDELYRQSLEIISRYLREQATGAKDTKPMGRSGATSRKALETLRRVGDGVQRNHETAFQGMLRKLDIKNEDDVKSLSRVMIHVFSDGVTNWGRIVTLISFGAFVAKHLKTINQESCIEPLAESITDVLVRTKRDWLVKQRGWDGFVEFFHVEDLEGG
smiles,measurement,setting,value
"CC[C@H](C)[C@H](NC(=O)[C@H](Cc1c[nH]c2ccccc12)NC(=O)[C@@H](NC(=O)[C@H](CCC(=O)O)NC(C)=O)[C@@H](C)CC)C(=O)N[C@@H](C)C(=O)N[C@@H](CCC(N)=O)C(=O)N[C@@H](CCC(=O)O)C(=O)N[C@@H](CC(C)C)C(=O)N[C@@H](CCCNC(=N)N)C(=O)N[C@@]1(C)CCCC=CCCC[C@@](C)(C(=O)N[C@@H](Cc2ccccc2)C(=O)N[C@@H](CC(N)=O)C(=O)N[C@@H](C)C(=O)N[C@@H](Cc2ccc(O)cc2)C(=O)N[C@@H](Cc2ccc(O)cc2)C(=O)N[C@@H](C)C(N)=O)NC(=O)[C@H](CC(=O)O)NC(=O)CNC(=O)[C@H]([C@@H](C)CC)NC1=O [BIM SAHBA2, reference compound] (Ac-EIWIAQELR[S5]IGD[S5]FNAYYA-NH2; staple 10-14 (inferred))",competition of FITC-BIM SAHBA2 binding to BCL-XL,BCL-XL,effectively competed
same,competition of FITC-BIM SAHBA2 binding to MCL-1,MCL-1; BTSA1 at 50 μM,effectively competed
same,competition of FITC-BIM SAHBA2 binding to BFL-1/A1,BFL-1/A1,effectively competed
O=C1C(=NNc2nccs2)C(c2ccccc2)=NN1c1nc(-c2ccccc2)cs1 [BTSA1],competition of FITC-BIM SAHBA2 binding to BCL-XL,BCL-XL,no capacity to compete
same,competition of FITC-BIM SAHBA2 binding to MCL-1,MCL-1,no capacity to compete
same,sensitivity of MEF cell lines,MEF cell lines,insensitive
same,cytochrome c release,[1],no effect
same,"sensitivity to treatment, cells with no BAX expression","[2]; BAX KO MEF and DKO MEF, 24 hr",exhibit resistance
same,"sensitivity to treatment, cells that express BAX","[2]; wild type MEF, H9c2 myocytes, 3T3 fibroblasts, doses giving complete cell death in AML cells",still exhibit resistance
CC1=NN(c2nc(-c3ccccc3)cs2)C(=O)C1=NNc1nccs1 [BTSA2],reduction in binding capacity to BAX,[3],~ 10 fold
"CC1(C)CCC(c2ccc(Cl)cc2)=C(CN2CCN(c3ccc(C(=O)NS(=O)(=O)c4ccc(N[C@H](CCN5CCOCC5)CSc5ccccc5)c(S(=O)(=O)C(F)(F)F)c4)cc3)CC2)C1 [Navitoclax, reference compound]",IC50,"MEF cell lines; Mus musculus, MEF, read-out: IC50, viability",1 to 5 µM
OC(CN1CCNCC1)Cn1c2ccc(Br)cc2c2cc(Br)ccc21 (stereo not drawn) [reference compound],inhibition of BTSA1-mediated apoptosis measured by caspase-3/7 activation,OCI-AML3 cells,complete inhibition
